Experiment in all cases: relative viability (nuclei count vs DMSO), 5 days (fraction); higher = more cells survive
Compound in the assay “Lapatinib + Pemetrexed”: CS(=O)(=O)CCNCc1ccc(-c2ccc3ncnc(Nc4ccc(OCc5cccc(F)c5)c(Cl)c4)c3c2)o1 [Lapatinib] + Nc1nc2[nH]cc(CCc3ccc(C(=O)N[C@@H](CCC(=O)O)C(=O)O)cc3)c2c(=O)[nH]1 [Pemetrexed] (partner 0.2 µM)
The method in brief:
(§1)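 A single step with final 0.05% Triton X-100, 1% formaldehyde and 1 ug/ml Hoechst fixed the cells and stained nuclei 5 days after treatment. Lung cancer cell lines in 1536-well plates had been treated by pin tool the day after seeding with one drug alone or a fixed anchor-drug dose plus five library-drug doses (not always all listed) in √10 steps, and nuclei were counted on 4× images. Relative viability is the ratio of nuclei in treated wells to nuclei in vehicle wells, taken as the median of duplicate plates.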

Compound in the assay “Wnt-C59 + Vorinostat”: CC1=NC=CC(=C1)C2=CC=C(C=C2)CC(=O)NC3=CC=C(C=C3)C4=CN=CC=C4 [Wnt-C59] + O=C(CCCCCCC(=O)Nc1ccccc1)NO [Vorinostat] (partner 1 µM)
In short, it runs like this:
as §1

Compound in the assay “Lapatinib + Linsitinib”: CS(=O)(=O)CCNCc1ccc(-c2ccc3ncnc(Nc4ccc(OCc5cccc(F)c5)c(Cl)c4)c3c2)o1 [Lapatinib] + C[C@]1(O)C[C@@H](c2nc(-c3ccc4ccc(-c5ccccc5)nc4c3)c3c(N)nccn32)C1 [Linsitinib] (partner 1 µM)
In short, it runs like this:
as §1

Compound in the assay “Wnt-C59 + Tozasertib”: CC1=NC=CC(=C1)C2=CC=C(C=C2)CC(=O)NC3=CC=C(C=C3)C4=CN=CC=C4 [Wnt-C59] + Cc1cc(Nc2cc(N3CCN(C)CC3)nc(Sc3ccc(NC(=O)C4CC4)cc3)n2)n[nH]1 [Tozasertib] (partner 0.1 µM)
The method in brief:
as §1

Turning to UMC-11, the relative viability came to 0.803 in the assay with Lapatinib + Pemetrexed (first compound 0.02 µM); 0.7 in the assay with Lapatinib + Pemetrexed (first compound 0.06325 µM); 0.781 with Lapatinib + Pemetrexed (first compound 0.2 µM); 0.795 with Lapatinib + Pemetrexed (first compound 0.6325 µM); 0.753 in the assay with Lapatinib + Pemetrexed (first compound 2 µM); 0.445 with Wnt-C59 + Vorinostat (first compound 0.001 µM). The relative viability with Wnt-C59 + Vorinostat (first compound 0.01 µM) stood at 0.418; in the assay with Wnt-C59 + Vorinostat (first compound 0.03162 µM) it was 0.339; in the assay with Wnt-C59 + Vorinostat (first compound 0.1 µM), 0.422; with Lapatinib + Linsitinib (first compound 0.02 µM) it was 1; with Lapatinib + Linsitinib (first compound 0.06325 µM), 0.964; with Lapatinib + Linsitinib (first compound 0.2 µM) it was 1.11. Besides, the relative viability with Lapatinib + Linsitinib (first compound 0.6325 µM) is 0.985; with Lapatinib + Linsitinib (first compound 2 µM), 1.02; with Wnt-C59 + Tozasertib (first compound 0.001 µM), 0.214; in the assay with Wnt-C59 + Tozasertib (first compound 0.01 µM) it was 0.197; with Wnt-C59 + Tozasertib (first compound 0.03162 µM), 0.203; with Wnt-C59 + Tozasertib (first compound 0.1 µM), 0.226.

The record behind these values is the supplement of paper PMC10307832.
